Target: PrP (Mus musculus, UniProt P04925)
Format: cell-based

Sequence of PrP (P04925 23-230 limits assumed): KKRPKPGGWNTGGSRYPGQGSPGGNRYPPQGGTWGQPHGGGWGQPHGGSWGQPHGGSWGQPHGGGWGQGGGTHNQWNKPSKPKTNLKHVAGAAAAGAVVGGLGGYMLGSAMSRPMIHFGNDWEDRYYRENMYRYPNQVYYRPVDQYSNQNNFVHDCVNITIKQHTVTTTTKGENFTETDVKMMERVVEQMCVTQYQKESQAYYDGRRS

Tunicamycin was tested, and the PrP glycoform pattern was “accumulate the non-glycosilated specie of PrP”.
